Measurements from US11026943B2, “Aminoquinoline derivatives and uses thereof” (UNIVERSITY OF DELHI, priority 2012, dated 2021).
Values joined by “and” are separate entries in the source; they are usually repeats but may differ in a detail not shown here. Equal values may be shown once.

Assays:
[1] = test system: CQ-resistant (W2 clone) strain of P. falciparum; experiment: In vitro antimalarial activity, CQ-resistant strain; assay type: cell-based, Plasmodium falciparum; conditions: for IC50: Plasmodium falciparum, CQ-resistant W2 clone, read-out: P. falciparum (W2 Clone) IC50; for P. falciparum (W2 Clone) S.I.: selectivity index = IC50 cytotoxicity to Vero cells / IC50 antimalarial
Source text: (§1) Med. Chem. 2005, 13, 4458; Khan, I. A. Lipids 2004, 37, 169].

[2] = test system: CQ-sensitive (D6 clone) strain of P. falciparum; experiment: In vitro antimalarial activity, CQ-sensitive strain; assay type: cell-based, Plasmodium falciparum; conditions: for IC50: Plasmodium falciparum, CQ-sensitive D6 clone, read-out: P. falciparum (D6 Clone) IC50; for P. falciparum (D6 Clone) S.I.: selectivity index = IC50 cytotoxicity to Vero cells / IC50 antimalarial
Source text: as §1

[3] = test system: HepG2 cells; experiment: In vitro cytotoxicity to mammalian cells, HepG2; assay type: cell-based; conditions: Homo sapiens
Source text: as §1

[4] = test system: LLC-PK-1 cells; experiment: In vitro cytotoxicity to mammalian cells, LLC-PK-1; assay type: cell-based; conditions: Sus scrofa, LLC-PK1
Source text: as §1

[5] = test system: VERO cells; experiment: In vitro cytotoxicity to mammalian cells, VERO; assay type: cell-based; conditions: for IC50: Chlorocebus sabaeus, Vero, in vitro cytotoxicity to mammalian cells
Source text: as §1

[6] = test system: MPTP-treated monkeys; conditions: previous study; cited from earlier work
[7] = test system: primary cultures of rat mesencephalic DA neurons; experiment: 6-OHDA-induced death in primary mesencephalic DA neurons (TH+ count, [3H]DA uptake); assay type: cell-based; conditions: number of TH+ neurons and DA uptake; 20 μM 6-OHDA for 24 hr
Protocol: Control DA neurons were treated with the above medium in the presence of a dopamine uptake blocker, 10 μM mazindol (Sigma). Cells were then washed with ice-cold Krebs Ringers solution and lysed with 0.5 M NaOH. Radioactivity was quantified by a liquid scintillation counter (Beckman, Fullerton, Calif.).
To prepare primary cultures of DA neurons, the ventral mesencephalon was removed from 14 day gestation Sprague Dawley rat embryo (Charles River, Cambridge, Mass.). Tissues were incubated with 0.01% trypsin in MEM (MEM, Invitrogen) for 10 min at 37° C. and triturated using a constricted Pasteur pipette. DA neurons were plated at 1.0×10^5 cells per 9 mm diameter glass cover slip precoated with 100 μg/ml poly-D-lysine (Sigma, St. Louis, Mo.) and 4 μg/ml laminin (Invitrogen). DA neurons were maintained at 37° C. in a humidified 5% CO2 atmosphere in minimum essential medium supplemented with 10% FBS (Hyclone), 2 mM glutamine and 6.0 g/l glucose. […]
Cells were fixed in 4% paraformaldehyde (PFA) for 20 min, washed and then incubated with blocking buffer [PBS, 10% goat serum (Invitrogen), 0.3% Triton X-100 (Sigma)] for 1 hour. […] Following washes with PBS, appropriate fluorescence-tagged secondary antibodies (Jackson Immunoresearch Laboratories, West Grove, Pa.) were used for visualization. […]

[8] = test system: Nurr1 recruitment to TH promoter NL1 and NL3; experiment: Chromatin immunoprecipitation in PC12 cells; assay type: cell-based, rat; conditions: 20 μM AQ or 75 μM CQ for 15 hrs
Protocol: Error bars represent standard deviations.
Cells were washed with PBS, fixed with 1% formaldehyde, lysed, and sonicated according to the manufacturer's instruction (Active Motif). 25 μg of soluble chromatin DNA were co-immunoprecipitated 1 μg of Nurr1 specific antibody (E-20, Santa Cruz) or control antibody (rabbit IgG, santa Cruz). […] Values are shown as fold induction compared to mock treated control cells.

[9] = test system: PC12 cells; experiment: 6-OHDA toxicity in PC12 cells (MTT reduction assay); assay type: cell-based, rat
Protocol: Cell viabilities were determined by the conventional MTT reduction assay. After incubation for indicated times, cells were treated with the MTT solution (final concentration, 1 mg/ml, Sigma) for 1 h. Formazan grains formed in intact cells were solubilized with MTT Solubilization. Solution containing 10% Triton X-100 plus 0.1 N HCl in anhydrous isopropanol for 24 h and then absorbance at 570 nm was measured with a microplate reader (Molecular Devices, Menlo Park, Calif.).

[10] = test system: LBDs of Nur77, GR, LXR, RXR, PPARα, PPARγ; experiment: Target selectivity: GAL4-LBD reporter assays of other nuclear receptors; assay type: cell-based; conditions: FIG. 19; 30 μM AQ
Protocol: The positive reactivity of these NR constructs was confirmed by the known activators (2 nM dexamethasone, 20 nM retinoic acid, 2 μM GW3965, 50 nM GW7647, and 5 nM GW1929 for GR, RXR, LXR, PPARα, and PPARγ, respectively). The basal level of transcriptional activity was normalized to 1. Bars represent means±SEM from three independent experiments.
(§4) Human neuroblastoma SK-N-BE(2)C cells were maintained in Dulbecco's modified Eagle's medium (DMEM) supplemented with 10% fetal bovine serum. All culture media contained 100 units/ml penicillin and 100 μg/ml streptomycin. For transfection, cells were plated at 1.5×10^5 cells/well in the DMEM media without antibiotic into 24-well plates 1 day prior to transfection. Transfections were carried out by the Lipofectamine plus (Invitrogen) according to the manufacture's protocol. Total DNA amount was 0.5 μg per well with 0.1 μg of pRSV-β-gal as an internal control. 6 hours after transfection, compounds in the DMEM media with 1% charcoal-stripped fetal calf serum was added and incubated overnight. […] Then equal volume of firefly luciferase substrate was added and the luciferase activity was measured using a Luminometer plate reader and normalized for beta-galactosidase activity.

[11] = target: T1, Nurr1 LBD (Mus musculus, UniProt Q06219); experiment: Filter binding assay with [3H]-CQ (saturation and competition)
Source text: The basal level of transcriptional activity was normalized to 1. The bars represent means±SEM from three independent experiments. (FIG. 13C) Effect of Nurr1 specific siRNA on Nurr1 LBD's transactivation activity. […] (FIG. 13D) Human neuroblastoma SK-N-BE(2)C cells were transfected with the N-terminal flag-tagged SRC1 or SRC3 and the C-terminal myc-tagged full-length Nurr1. […] Cell lysates were immunoprecipitated (IP) using anti-flag antibodies and analyzed by immunoblotting (IB) using anti-myc antibodies. […] The fold induction was derived by comparing each luciferase activity to basal level obtained by non-SRC transfection. […] The concentrations (04) are shown next to the arrows. […] Specific binding was calculated as the difference of total and non-specific binding. The insert indicates Scatchard analysis of the specific binding. […] The data represent the average of triplicate from three independent experiments. All graphs, Kd, Ki, and Bmax values were generated using the non-linear regression program Prism version 5.02.
GF/C filters were wet with in binding buffer and placed on a 48-place filter manifold. […] Filters were washed with 4×100 ml binding buffer, dried, and mixed with 5 ml Scintiverse BD (Fisher) and radioactivity was determined in a Beckman LS6000SC liquid scintillation counter. […] The mixture was applied to GF/C filter and filter was washed and counted as described above.

[12] = target: T1, Nurr1 LBD; experiment: Nurr1 LBD GAL4 reporter assay (pSVGAL(DBD)-N(LBD), p8xGAL-Luc) in SK-N-BE(2)C cells; assay type: cell-based
Source text: (§2) The pTH2600LUC reporter construct contains the 2.6 kb upstream sequences of the rat tyrosine hydroxylase gene in front of a firefly luciferase gene in pGL3-basic vector. A Nurr1-expression plasmid, pSV40Nurr1, was kindly provided by Dr Orla M. Conneely at Baylor College of Medicine (Houston, Tex., USA). […] The VP16/SRC1 and VP16/SRC3 hybrid were constructed by inserting the transactivation domain of the VP16 protein upstream of SRC1 and SRC3, respectively. […] The recombinant proteins were purified by Ni-NTA column chromatography (Qiagen) according to the manufacturer's instruction. The integrity of all sequences was verified by DNA sequence analyses.
(§3) Human neuroblastoma SK-N-BE(2)C cells were maintained in Dulbecco's modified Eagle's medium (DMEM) supplemented with 10% fetal bovine serum. All culture media contained 100 units/ml penicillin and 100 μg/ml streptomycin. For transfection, cells were plated at 1.5×10^5 cells/well in the DMEM media without antibiotic into 24-well plates 1 day prior to transfection. Transfections were carried out by the Lipofectamine plus (Invitrogen) according to the manufacture's protocol. Total DNA amount was 0.5 μg per well with 0.1 μg of pRSV-β-gal as an internal control. 6 hours after transfection, compounds in the DMEM media with 1% charcoal-stripped fetal calf serum was added and incubated overnight. Cells from each well were lysed with 100 μl of lysis buffer, which contains 25 mM Tris-phosphate (pH 7.8), 2 mM DTT, 2 mM CDTA (1,2-diaminocyclohexane-N,N,N′,N′-tetraacetic acid), 10% glycerol, and 1% Triton X-100. Then equal volume of firefly luciferase substrate was added and the luciferase activity was measured using a Luminometer plate reader and normalized for beta-galactosidase activity.

[13] = test system: aphakia (ak/ak) mice; experiment: Behavioral studies in ak/ak mice (Pole, Challenging Beam, Cylinder, Rotarod) and SN histology; assay type: in vivo, mouse; conditions: L-DOPA 8 mg/kg i.p. once per day
Protocol: Either 20 mg/kg of AQ (AQ group) or the saline (Saline group) was intraperitoneally injected (I.P.) twice per day for two weeks. 8 mg/kg of L-DOPA (L-DOPA group) in 0.5% DMSO was injected (I.P.) once per day for two weeks. The L-DOPA group was given 12.5 mg/kg benserazide 20 min prior to administration of L-DOPA.
Each ak mouse was randomly assigned into one of three experiment groups, (1) saline group (negative control; n=8), (2) L-DOPA group (positive control; n=8), (3) AQ group (n=10). Each WT or rdl mouse was randomly divided into two groups, (1) saline group (n=8) and (2) AQ group (n=10). Pole Test, Challenging Beam Traversal Test, and Cylinder Test were performed at two time points, immediately and one month after two weeks of either AQ or saline injection. Each mouse ran each task twice. Rota rod test was performed immediately after two weeks of either drug or saline injection. Acclimation and data recording process were identical to the rat study described above. All tasks were performed as described previously^11 and the short description of each task is as follows.
A vertical wooden pole 50 cm in length and 1 cm in diameter was used for Pole Test. Each mouse was gently placed head upwards on top of the pole which is placed on each animal's home cage. Each mouse ran tree trials per session during 2 training sessions. On the testing day, mice ran three trials. Two parameters (the meantime to orient downward and the total travel mean time) were used for the statistical analysis.
A 1 m length of plastic beam was used for Challenging Beam Traversal Test. The starting width of the beam was 3.5 cm and it gradually narrowed in 1 c increments to 0.5 cm at the other end site of the beam. Animals were trained to walk from the wide end to the other end for 2 sessions, three trials per session before testing. A mesh grid was removed during the training period. On the testing day, a mesh grid (1 cm square) covering the beam surface was equipped leaving a […] room between the grid and the beam surface. On the testing day, mice ran three trials. Two parameters (the mean number of steps taken by each animal and the mean time to traverse across three trials) were collected and used for statistical analysis.
A small transparent cylinder (height, 15.5 cm; diameter, 12.7 cm) was used to evaluate somatosensory motor function. Mice were placed in the cylinder and their rears were counted for 5 minutes. The forelimb touching the Plexiglas wall (a vertical movement) is defined as a full rear. The mean number of forelimb use was calculated for the statistical analysis. […]
The Rota rod equipment (Med-Associates, Inc, Albans, Vt., USA) was used to measure motor coordination. […] The mean latency to fall off from the Rota rod was measured for the statistical analysis. […]

[14] = target: T2, full-length Nurr1 (Mus musculus, UniProt Q06219); experiment: Full-length Nurr1 reporter assay (p4xNL3-Luc) in SK-N-BE(2)C cells; assay type: cell-based; conditions: dose-dependent, maximal
T2 construct: Full-length mouse Nurr1cDNA was amplified by RT-PCR from pSV40Nurr1; expressed in transfected cells; host or cells: SK-N-BE(2)C human neuroblastoma cells
Source text: as §2
as §3, with “6 hours after transfection, compounds in the DMEM media with 1% charcoal-stripped fetal calf serum was added and incubated overnight. Cells from each well were lysed with 100 μl of lysis buffer, which contains 25 mM Tris-phosphate (pH 7.8), 2 mM DTT, 2 mM CDTA (1,2-diaminocyclohexane-N,N,N′,N′-tetraacetic acid), 10% glycerol, and 1% Triton X-100.” left out

[15] = target: T3, Nurr1 (Mus musculus, UniProt Q06219); experiment: High-throughput cell-based screen of Nurr1-dependent TH promoter activation; conditions: library of 960 FDA-approved drugs
T3 construct: Full-length mouse Nurr1cDNA was amplified by RT-PCR from pSV40Nurr1; expressed in transfected cells; host or cells: SK-N-BE(2)C human neuroblastoma cells
T3 sequence (Q06219 whole entry): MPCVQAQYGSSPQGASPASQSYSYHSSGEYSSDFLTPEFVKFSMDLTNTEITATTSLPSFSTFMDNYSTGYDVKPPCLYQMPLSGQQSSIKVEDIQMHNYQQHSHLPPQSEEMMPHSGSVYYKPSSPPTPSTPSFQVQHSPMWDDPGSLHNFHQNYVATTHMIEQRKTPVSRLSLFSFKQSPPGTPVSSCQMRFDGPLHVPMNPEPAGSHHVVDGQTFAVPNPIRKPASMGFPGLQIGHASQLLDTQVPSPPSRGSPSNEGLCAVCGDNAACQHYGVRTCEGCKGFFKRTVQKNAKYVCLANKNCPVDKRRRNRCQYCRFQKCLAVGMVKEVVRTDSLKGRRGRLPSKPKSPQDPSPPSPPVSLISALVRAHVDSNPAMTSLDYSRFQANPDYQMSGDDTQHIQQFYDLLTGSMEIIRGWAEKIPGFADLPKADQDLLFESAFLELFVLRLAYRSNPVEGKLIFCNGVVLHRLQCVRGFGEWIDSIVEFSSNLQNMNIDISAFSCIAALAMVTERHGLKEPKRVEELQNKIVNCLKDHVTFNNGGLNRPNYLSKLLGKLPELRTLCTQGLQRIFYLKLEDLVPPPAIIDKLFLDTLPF
Source text: The pTH2600LUC reporter construct contains the 2.6 kb upstream sequences of the rat tyrosine hydroxylase gene in front of a firefly luciferase gene in pGL3-basic vector. A Nurr1-expression plasmid, pSV40Nurr1, was kindly provided by Dr Orla M. Conneely at Baylor College of Medicine (Houston, Tex., USA). Full-length mouse Nurr1cDNA was amplified by RT-PCR from pSV40Nurr1 using forward 5′-[sequence]-3′ (SEQ ID NO: 1) and reverse 5′-[sequence]-3′ (SEQ ID NO: 2) oligonucleotides.
as §4

T1 sequence (Q06219 328-598): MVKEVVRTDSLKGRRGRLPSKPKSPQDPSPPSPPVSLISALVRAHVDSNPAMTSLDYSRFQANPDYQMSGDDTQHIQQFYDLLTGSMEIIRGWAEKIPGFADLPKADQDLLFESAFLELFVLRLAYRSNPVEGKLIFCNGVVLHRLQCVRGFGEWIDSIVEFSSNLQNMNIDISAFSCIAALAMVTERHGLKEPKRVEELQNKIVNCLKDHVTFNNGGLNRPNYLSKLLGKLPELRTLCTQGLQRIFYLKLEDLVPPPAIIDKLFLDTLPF
T2 sequence (Q06219 whole entry): as the sequence (Q06219 whole entry) above

With `Cc1cc(NCCCCCCNc2ccnc3cc(Cl)ccc23)nc(N2CCN(C)CC2)n1` [12l, N-(7-Chloro-quinolin-4-yl)-N′-[6-methyl-2-(4-methyl-piperazin-1-yl)-pyrimidin-4-yl]-hexane-1,6-diamine] the melting point was 152 to 154 °C, the IC50 [1] was 0.016 µM and the “P. falciparum (W2 Clone) S.I.” value [1] was “(>637)”. For the same compound, the “activity fold higher than artemisinin” value ([2]; CQ-sensitive strain) was 2 fold, the IC50 [2] was 0.007 µM and the “selectivity index of antimalarial activity” value ([2]; ratio of IC50 for cytotoxicity to Vero cells and IC50 for antimalarial activity) was “considerably high”. For the same compound, the “P. falciparum (D6 Clone) S.I.” value [2] was “(>1457)”, the IC50 [3] was < 6.7 µM and the IC50 [4] was 7.4 µM. For the same compound, the IC50 [5] was 10.2 µM and the “toxicity to cell lines” value ([5]; all the three cell lines (VERO, LLC-PK-1, and HepG2)) was “showed toxicity”.
With `CCN1CCN(c2nc(C)cc(NCCCCNc3ccnc4cc(Cl)ccc34)n2)CC1` [12n, N-(7-Chloro-quinolin-4-yl)-N′-[2-(4-ethyl-piperazin-1-yl)-6-methyl-pyrimidin-4-yl]-butane-1,4-diamine] the melting point was 101 to 103 °C, the IC50 [1] was 0.018 µM and the “P. falciparum (W2 Clone) S.I.” value [1] was 1772.2. For the same compound, the IC50 [2] was 0.019 µM, the “P. falciparum (D6 Clone) S.I.” value [2] was 1678.9 and the IC50 [3] was 14.9 µM. The IC50 [4] was 10.5 µM and the IC50 [5] was 31.9 µM.
For `CCN(CC)CCCC(C)Nc1ccnc2cc(Cl)ccc12` (centres unmarked) [CQ, chloroquine], the “MPTP-induced parkinsonian motor abnormalities” value [6] is listed as “protected them from MPTP-induced parkinsonian motor abnormalities”, the “6-OHDA-induced death in primary DA neurons” value [7] is listed as “significantly inhibit” and the “Nurr1 recruitment to NL1 and NL3 sites of the TH promoter” value [8] is listed as “recruited to both NL1 and NL3 sites”. The “neuroprotective effect in PC12 cells” value [9] was “neuroprotective effect”, the “transcriptional activity of other nuclear receptors” value [10] was “unable to induce” and the Ki ([11]; 500 nM [3H]-CQ) was 0.088 µM. The EC50 ([12]; read-out: EC50 Nurr1 LBD-based reporter activity) was ~60 µM and ~50 µM.
For `N[C@@H](Cc1ccc(O)c(O)c1)C(=O)O` [L-DOPA], the “rearing activity in Cylinder test” value [13] was “dramatically induced rearing activity”.
For `CCN(CC)CCCC(C)Nc1ccnc2cc(Cl)ccc12` (centres unmarked) [[^3H]-CQ], the Kd ([11]; radioligand saturation binding, read-out: dissociation constant, saturable binding to Nurr1-LBD) was 0.27 µM.
In the case of `O=C(OCC(O)CO)c1ccccc1Nc1ccnc2cc(Cl)ccc12` (centres unmarked) [glafenine], the “luciferase reporter activity, fold activation” value [14] is reported as “approximately 1.6 fold” and the screen outcome [15] is reported as “hit compounds”.
In the case of `COc1cc(NC(C)CCCN)c2ncccc2c1` (centres unmarked) [primaquine], the “Ki, competition with [3H]-CQ for binding to Nurr1-LBD” value ([11]; 500 nM [3H]-CQ) is reported as “unable to compete” and the “transactivation of Nurr1 LBD / Nurr1 transcriptional function” value ([12]; wide range of concentrations, FIG. 18) is reported as “couldn't enhance the Nurr1 transcriptional function”.
